{"source": "patent US20210378240A1", "about": "“OXETANYLPHENOXYQUINOLINES AND ANALOGUES” (Bayer Aktiengesellschaft, priority 2018, published 2021)", "description": "In table 1, the logP values were determined in accordance with EEC Directive 79/831 Annex V.A8 by HPLC (High Performance Liquid Chromatography) on a reversed-phase column (C 18), using the method to described below:\ntemperature: 40° C.; mobile phases: 0.1% aqueous formic acid and acetonitrile; linear gradient from 10% acetonitrile to 95% acetonitrile;\nCalibration was carried out using unbranched alkan-2-ones (comprising 3 to 16 carbon atoms) with known logP values (determination of the logP values by the retention times using linear interpolation between two successive alkanones). lambda-max-values were determined using UV-spectra from 200 nm to 400 nm and the peak values of the chromatographic signals."}
{"molecule": "Cc1nc2c(F)c(F)ccc2cc1Cc1ccccc1Br", "note": "[3-(2-bromobenzyl)-7,8-difluoro-2-methylquinoline]", "chromatographic logP": 4.26}
{"molecule": "O=[N+]([O-])c1cccc(F)c1OC1COC1", "note": "[3-(2-fluoro-6-nitrophenoxy)oxetane]", "chromatographic logP": 2}
{"molecule": "Nc1cccc(F)c1OC1COC1", "note": "[3-fluoro-2-(oxetan-3-yloxy)-aniline, 3-fluoro-2-(oxetan-3-yloxy)aniline]", "chromatographic logP": 1.32}
{"molecule": "Cc1nc2c(F)c(F)ccc2cc1Oc1ccccc1C1OCC1(C)C", "note": "(centres unmarked) [I.01, 3-[2-(3,3-dimethyloxetan-2-yl)phenoxy]-7,8-difluoro-2-methyl-quinoline]", "chromatographic logP": 4.44}
{"molecule": "Cc1nc2c(F)c(F)ccc2cc1Oc1ccccc1C1COC1", "note": "[I.02, 7,8-difluoro-2-methyl-3-[2-(oxetan-3-yl)phenoxy]quinoline]", "chromatographic logP": 3.33}
{"molecule": "Cc1nc2c(F)c(F)ccc2cc1Oc1ccccc1N1CC2(COC2)C1", "note": "[I.03, 7,8-difluoro-2-methyl-3-[2-(2-oxa-6-azaspiro[3.3]heptan-6-yl)phenoxy]quinoline]", "chromatographic logP": 3.48}
{"molecule": "Cc1nc2c(F)c(F)ccc2cc1Cc1ccccc1C1(C)COC1", "note": "[I.04, 7,8-difluoro-2-methyl-3-[2-(3-methyloxetan-3-yl)benzyl]quinoline]", "chromatographic logP": 3.47}
{"molecule": "Cc1nc2c(F)c(F)ccc2cc1Nc1cccc(F)c1CN1CC(F)(F)C1", "note": "[I.10, N-{2-[(3,3-difluoroazetidin-1-yl)methyl]-3-fluorophenyl}-7,8-difluoro-2-methylquinolin-3-amine]", "chromatographic logP": 4.33}
{"molecule": "Cc1nc2c(F)c(F)ccc2cc1Cc1ccccc1C#CC1COC1", "note": "[I.14, 7,8-difluoro-2-methyl-3-[2-(oxetan-3-ylethynyl)benzyl]quinoline]", "chromatographic logP": 3.66}
{"molecule": "Cc1nc2c(F)c(F)ccc2cc1Nc1cccc(F)c1OC1COC1", "note": "[I.15, 7,8-difluoro-N-[3-fluoro-2-(oxetan-3-yloxy)phenyl]-2-methylquinolin-3-amine]", "chromatographic logP": 3.28}
{"molecule": "Cc1nc2c(F)c(F)ccc2cc1Oc1ccccc1C(O)C(C)(C)CO", "note": "(centres unmarked) [IIa.01, 1-{2-[(7,8-difluoro-2-methylquinolin-3-yl)oxy]phenyl}-2,2-dimethylpropane-1,3-diol]", "chromatographic logP": 2.96}
{"molecule": "Cc1nc2c(F)c(F)ccc2cc1Oc1cccc(I)c1C(O)C(C)(C)CO", "note": "(centres unmarked) [IIa.02, 1-{2-[(7,8-difluoro-2-methylquinolin-3-yl)oxy]-6-iodophenyl}-2,2-dimethylpropane-1,3-diol]", "chromatographic logP": 3.57}
{"molecule": "O=Cc1ccccc1Nc1cnc2c(F)cccc2c1", "note": "[IV.01, 2-[(8-fluoroquinolin-3-yl)amino]benzaldehyde]", "chromatographic logP": 2.88}
{"molecule": "O=Cc1c(F)cccc1Oc1cnc2ccccc2c1", "note": "[IV.02, 2-fluoro-6-(quinolin-3-yloxy)benzaldehyde]", "chromatographic logP": 2.43}
{"molecule": "Cc1nc2ccccc2cc1Oc1cccc(F)c1C=O", "note": "[IV.03, 2-fluoro-6-[(2-methylquinolin-3-yl)oxy]benzaldehyde]", "chromatographic logP": 2.32}
{"molecule": "Cc1nc2c(F)c(F)ccc2cc1Oc1ccccc1C=O", "note": "[IV.04, 2-[(7,8-difluoro-2-methylquinolin-3-yl)oxy]benzaldehyde]", "chromatographic logP": 3.21}
{"molecule": "Cc1nc2c(F)c(F)ccc2cc1Oc1cccc(F)c1C=O", "note": "[IV.05, 2-[(7,8-difluoro-2-methylquinolin-3-yl)oxy]-6-fluorobenzaldehyde]", "chromatographic logP": 3.1}
{"molecule": "Fc1cccc(Br)c1CN1CC(F)(F)C1", "note": "[IX_C, 1-(2-bromo-6-fluorobenzyl)-3,3-difluoroazetidine]", "chromatographic logP": 1.89}
{"molecule": "CC1(c2ccccc2CBr)COC1", "note": "[XIII.01, 3-[2-(bromomethyl)phenyl]-3-methyloxetane]", "chromatographic logP": 2.73}
{"molecule": "CC1(c2ccccc2CO)COC1", "note": "[XIV.01, [2-(3-methyloxetan-3-yl)phenyl]methanol]", "chromatographic logP": 1.3}
